Measured values reported in patent US20230042936A1, “PYRIDO[2,3-d]PYRIMIDIN-7(8H)-ONES AS CDK INHIBITORS” (PROSENESTAR LLC, priority 2020, published 2023).
≈ marks a conversion by molar mass, not a printed value. Like-named read-outs stand apart in the source and are kept apart here.

Tests used:
CDK3/CycC = CDK3/CycC (Homo sapiens, UniProt Q00526); test: Kinase profiling; type: biochemical; settings: 10 semi-logarithmic dilutions from 50 μM, singlicate
CDK19/CycC = CDK19/CycC (Homo sapiens, UniProt Q9BWU1); test: Kinase profiling; type: biochemical; settings: 10 semi-logarithmic dilutions from 50 μM, singlicate
Chain of CDK19/CycC (Q9BWU1 whole entry): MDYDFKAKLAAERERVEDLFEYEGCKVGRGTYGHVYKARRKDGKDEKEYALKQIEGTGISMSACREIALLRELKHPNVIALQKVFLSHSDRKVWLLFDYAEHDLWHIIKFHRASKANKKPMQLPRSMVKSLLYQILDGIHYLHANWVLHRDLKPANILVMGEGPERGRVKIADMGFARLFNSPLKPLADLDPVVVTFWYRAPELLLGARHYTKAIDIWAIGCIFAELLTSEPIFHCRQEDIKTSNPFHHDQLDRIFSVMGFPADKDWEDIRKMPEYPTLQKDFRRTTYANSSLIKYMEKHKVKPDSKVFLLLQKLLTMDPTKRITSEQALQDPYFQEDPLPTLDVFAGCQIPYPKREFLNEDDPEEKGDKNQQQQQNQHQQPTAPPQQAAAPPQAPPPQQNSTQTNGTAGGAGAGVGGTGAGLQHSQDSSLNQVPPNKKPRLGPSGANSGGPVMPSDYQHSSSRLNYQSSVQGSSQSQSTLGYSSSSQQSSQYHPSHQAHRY
Chain of CDK19/CycC (P24863 whole entry partner): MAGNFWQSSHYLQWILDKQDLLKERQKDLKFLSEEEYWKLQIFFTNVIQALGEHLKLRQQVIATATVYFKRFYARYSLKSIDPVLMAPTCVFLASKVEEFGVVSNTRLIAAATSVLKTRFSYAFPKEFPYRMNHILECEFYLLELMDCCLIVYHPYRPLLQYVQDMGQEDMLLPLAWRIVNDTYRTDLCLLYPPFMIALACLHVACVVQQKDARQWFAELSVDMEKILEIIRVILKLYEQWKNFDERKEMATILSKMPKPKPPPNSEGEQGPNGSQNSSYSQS

HIPK2 = HIPK2 (Homo sapiens, UniProt Q9H2X6); test: Kinase profiling; type: biochemical
Chain of HIPK2 (Q9H2X6 whole entry): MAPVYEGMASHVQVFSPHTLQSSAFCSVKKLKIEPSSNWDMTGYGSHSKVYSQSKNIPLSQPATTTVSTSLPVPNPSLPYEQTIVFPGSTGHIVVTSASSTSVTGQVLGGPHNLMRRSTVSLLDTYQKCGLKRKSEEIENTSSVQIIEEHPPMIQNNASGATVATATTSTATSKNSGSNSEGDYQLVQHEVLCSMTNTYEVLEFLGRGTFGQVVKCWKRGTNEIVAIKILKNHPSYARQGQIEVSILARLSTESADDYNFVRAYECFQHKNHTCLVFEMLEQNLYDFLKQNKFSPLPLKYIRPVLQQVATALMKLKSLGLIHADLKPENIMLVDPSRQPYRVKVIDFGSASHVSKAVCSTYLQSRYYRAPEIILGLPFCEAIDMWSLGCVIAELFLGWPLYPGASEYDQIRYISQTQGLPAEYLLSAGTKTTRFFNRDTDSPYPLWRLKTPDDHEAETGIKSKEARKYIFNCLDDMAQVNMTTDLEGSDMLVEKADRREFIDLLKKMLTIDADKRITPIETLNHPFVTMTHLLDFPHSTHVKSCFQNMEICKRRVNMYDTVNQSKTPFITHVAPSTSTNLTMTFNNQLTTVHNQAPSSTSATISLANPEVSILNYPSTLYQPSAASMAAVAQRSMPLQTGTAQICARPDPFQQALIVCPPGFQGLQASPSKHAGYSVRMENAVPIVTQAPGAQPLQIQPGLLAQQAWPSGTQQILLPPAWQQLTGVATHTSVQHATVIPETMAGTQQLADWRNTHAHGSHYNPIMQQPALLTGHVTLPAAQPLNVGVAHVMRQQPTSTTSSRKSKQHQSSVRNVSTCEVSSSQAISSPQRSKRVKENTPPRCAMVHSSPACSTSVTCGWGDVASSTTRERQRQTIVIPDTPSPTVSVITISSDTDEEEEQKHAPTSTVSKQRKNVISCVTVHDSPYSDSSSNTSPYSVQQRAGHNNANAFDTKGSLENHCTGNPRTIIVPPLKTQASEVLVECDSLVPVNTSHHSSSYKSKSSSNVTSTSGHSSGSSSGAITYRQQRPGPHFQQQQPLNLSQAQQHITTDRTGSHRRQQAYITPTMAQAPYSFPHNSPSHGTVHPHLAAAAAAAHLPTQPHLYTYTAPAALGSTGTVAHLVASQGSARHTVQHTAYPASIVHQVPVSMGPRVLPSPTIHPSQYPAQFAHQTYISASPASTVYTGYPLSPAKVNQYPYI

CDC7/DBF4 = CDC7/DBF4 (Homo sapiens, UniProt O00311); test: Kinase profiling; type: biochemical
Chain of CDC7/DBF4 (O00311 whole entry): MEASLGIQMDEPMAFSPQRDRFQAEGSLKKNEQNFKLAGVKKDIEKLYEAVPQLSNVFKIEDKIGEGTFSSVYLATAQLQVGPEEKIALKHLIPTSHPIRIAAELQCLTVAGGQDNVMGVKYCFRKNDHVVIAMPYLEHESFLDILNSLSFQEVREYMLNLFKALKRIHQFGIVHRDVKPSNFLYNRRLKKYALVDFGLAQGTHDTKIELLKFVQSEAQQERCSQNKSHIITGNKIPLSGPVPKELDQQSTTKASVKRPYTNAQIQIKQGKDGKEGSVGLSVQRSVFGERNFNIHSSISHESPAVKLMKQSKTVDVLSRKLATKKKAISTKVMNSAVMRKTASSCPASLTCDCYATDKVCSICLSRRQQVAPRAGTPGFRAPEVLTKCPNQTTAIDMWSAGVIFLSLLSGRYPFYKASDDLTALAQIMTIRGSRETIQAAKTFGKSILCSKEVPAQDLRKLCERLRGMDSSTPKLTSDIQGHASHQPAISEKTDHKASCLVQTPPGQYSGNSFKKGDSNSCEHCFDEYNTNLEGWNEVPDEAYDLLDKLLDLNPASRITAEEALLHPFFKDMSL
Chain of CDC7/DBF4 (Q9UBU7 whole entry partner): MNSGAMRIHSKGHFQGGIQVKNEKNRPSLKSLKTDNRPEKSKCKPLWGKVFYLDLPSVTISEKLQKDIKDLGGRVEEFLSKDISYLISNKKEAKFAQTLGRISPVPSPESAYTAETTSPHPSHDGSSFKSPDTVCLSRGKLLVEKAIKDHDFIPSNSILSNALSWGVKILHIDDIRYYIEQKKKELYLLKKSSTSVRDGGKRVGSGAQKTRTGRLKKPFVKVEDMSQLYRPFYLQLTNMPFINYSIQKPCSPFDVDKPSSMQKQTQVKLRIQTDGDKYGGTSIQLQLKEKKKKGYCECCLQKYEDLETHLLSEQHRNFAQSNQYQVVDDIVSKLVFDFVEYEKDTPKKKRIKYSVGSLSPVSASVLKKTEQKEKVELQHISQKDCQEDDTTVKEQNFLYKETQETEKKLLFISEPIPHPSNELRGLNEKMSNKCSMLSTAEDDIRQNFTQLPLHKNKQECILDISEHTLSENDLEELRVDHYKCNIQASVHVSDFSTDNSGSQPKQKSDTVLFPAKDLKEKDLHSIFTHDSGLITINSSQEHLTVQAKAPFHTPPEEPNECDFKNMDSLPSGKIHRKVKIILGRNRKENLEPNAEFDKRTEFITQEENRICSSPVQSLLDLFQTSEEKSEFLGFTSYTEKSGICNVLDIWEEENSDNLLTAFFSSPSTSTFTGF

CDK8/CycC = CDK8/CycC (Homo sapiens, UniProt P49336); test: Kinase profiling; type: biochemical; settings: 10 semi-logarithmic dilutions from 50 μM, singlicate
Chain of CDK8/CycC (P49336 whole entry): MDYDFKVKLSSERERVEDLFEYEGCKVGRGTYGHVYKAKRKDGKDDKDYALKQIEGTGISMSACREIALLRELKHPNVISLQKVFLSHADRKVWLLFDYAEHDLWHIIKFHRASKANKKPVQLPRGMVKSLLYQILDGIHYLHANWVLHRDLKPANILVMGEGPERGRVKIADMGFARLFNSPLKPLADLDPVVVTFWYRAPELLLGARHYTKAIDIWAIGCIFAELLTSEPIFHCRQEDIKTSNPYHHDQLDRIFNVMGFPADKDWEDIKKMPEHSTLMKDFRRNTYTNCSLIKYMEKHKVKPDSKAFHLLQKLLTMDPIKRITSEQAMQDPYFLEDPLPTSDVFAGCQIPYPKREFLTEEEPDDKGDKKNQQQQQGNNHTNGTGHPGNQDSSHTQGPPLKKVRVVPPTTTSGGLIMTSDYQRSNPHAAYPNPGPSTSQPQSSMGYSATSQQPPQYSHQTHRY
Chain of CDK8/CycC (P24863 whole entry partner): as the sequence (P24863 whole entry partner) above

ERK1 = ERK1 (Homo sapiens, UniProt P27361); test: Kinase profiling; type: biochemical; settings: 10 semi-logarithmic dilutions from 50 μM, singlicate
Chain of ERK1 (P27361 whole entry, the tested form may be a part): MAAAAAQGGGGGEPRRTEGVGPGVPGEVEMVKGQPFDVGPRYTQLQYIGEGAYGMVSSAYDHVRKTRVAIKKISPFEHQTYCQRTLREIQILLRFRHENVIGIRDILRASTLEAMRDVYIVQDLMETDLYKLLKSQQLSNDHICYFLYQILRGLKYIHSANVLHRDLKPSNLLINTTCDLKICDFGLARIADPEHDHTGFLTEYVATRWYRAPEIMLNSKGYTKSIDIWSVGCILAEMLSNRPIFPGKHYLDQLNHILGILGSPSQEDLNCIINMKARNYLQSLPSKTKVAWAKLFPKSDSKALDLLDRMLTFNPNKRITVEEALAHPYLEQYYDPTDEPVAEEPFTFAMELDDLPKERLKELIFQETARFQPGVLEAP

AKT1 aa1-480 = target: T1, AKT1 aa1-480 (Homo sapiens, UniProt P31749); test: Kinase profiling; type: biochemical; settings: 10 semi-logarithmic dilutions from 50 μM, singlicate
T1 construct: AKT1 aa1-480
T1 sequence (P31749 whole entry, the tested form may be a part): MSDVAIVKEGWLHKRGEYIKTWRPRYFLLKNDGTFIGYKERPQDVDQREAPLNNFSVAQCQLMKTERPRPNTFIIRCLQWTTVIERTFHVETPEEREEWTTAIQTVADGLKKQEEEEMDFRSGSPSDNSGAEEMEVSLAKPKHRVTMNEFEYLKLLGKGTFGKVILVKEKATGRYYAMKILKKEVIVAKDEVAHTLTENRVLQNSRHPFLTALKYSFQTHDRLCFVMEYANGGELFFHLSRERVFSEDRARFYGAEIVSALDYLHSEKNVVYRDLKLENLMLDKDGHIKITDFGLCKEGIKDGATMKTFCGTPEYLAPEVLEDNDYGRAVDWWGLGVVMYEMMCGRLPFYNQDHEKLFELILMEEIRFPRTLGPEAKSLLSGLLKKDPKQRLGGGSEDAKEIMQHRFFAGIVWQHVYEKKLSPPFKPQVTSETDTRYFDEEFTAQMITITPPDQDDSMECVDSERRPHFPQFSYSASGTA

CDK12wt/CycK = CDK12wt/CycK (Homo sapiens, UniProt Q9NYV4); test: Kinase profiling; type: biochemical; settings: 10 semi-logarithmic dilutions from 50 μM, singlicate
CDK3/CycE1 = CDK3/CycE1 (Homo sapiens, UniProt Q00526); test: Kinase profiling; type: biochemical; settings: 10 semi-logarithmic dilutions from 50 μM, singlicate
[1] = tested on: H460 lung carcinoma cell line; test: Proliferation assay: determination of GI50; type: cell-based, human; settings: Table 3, 48 h, n = 2 independent experiments
Method: (§1) The following human tumor cell lines, all Retinoblastoma (Rb)-proficient, were used in this study: MDA-MB231 (breast cancer), MDA-MB453 (breast cancer), U87MG (glioblastoma) and H460 (lung cancer). MDA-MB468 (breast cancer) and SW1783 (glioblastoma) Rb-deficient cells were also included in the study, as well as the MCF10A non-transformed mammary epithelial cell line. Tumor cell lines were maintained in DMEM or RPMI-1640 medium, depending on the cell line, supplemented with 10% FBS. MCF10A cells were grown in complete mammary epithelial growth medium (MEGM, Lonza). Cell lines were authenticated by short tandem repeat (STR) loci profiling with the GenePrint® 10 System (Promega).
(§2) All human cancer cell lines (Table 2) were obtained from the American Type Culture Collection, and were maintained in DMEM (Hyclone) or RPMI-1640 medium (Sigma) supplemented with 10% fetal bovine serum (Sigma). Non-transformed MCF10 cell line was maintained in MEGM Mammary Epithelial Cell Growth Medium (Lonza). Immortalized mouse embryonic fibroblasts (MEFs) were maintained in DMEM with 10% fetal bovine serum.
(§3) 48 h later cells were fixed with PFA 4% for 15 minutes, stained with 10 μg/ml Hoechst 33342 (Molecular Probes, Thermo Fisher) for 30 minutes and washed twice with PBS. Cells were imaged in a high content screening system (Opera Phoenix™, Perkin Elmer) using a 20× dry objective (30 fields/well). Cell counts were determined by the Opera software (Perkin Elmer) and data were further processed with SPSS software. GI50 was calculated by estimating the absolute IC50 using dose-response inhibition tool in Prism6 (Graphpad Software Inc.).

[2] = tested on: MCF10 non-transformed mammary epithelial cell line; test: Proliferation assay: determination of GI50; type: cell-based, human; settings: Table 3, 48 h, n = 2 independent experiments
Method: as §1, §2, §3

[3] = tested on: MDA-MB-231 breast carcinoma cell line; test: Proliferation assay: determination of GI50; type: cell-based, human
Method: as §1, §2, §3

[4] = tested on: U87MG glioblastoma cell line; test: Proliferation assay: determination of GI50; type: cell-based, human
Method: as §1, §2, §3

DYRK2 = target: T2, DYRK2 (Homo sapiens, UniProt Q92630); test: Kinase profiling; type: biochemical
T2 sequence (Q92630 1-601): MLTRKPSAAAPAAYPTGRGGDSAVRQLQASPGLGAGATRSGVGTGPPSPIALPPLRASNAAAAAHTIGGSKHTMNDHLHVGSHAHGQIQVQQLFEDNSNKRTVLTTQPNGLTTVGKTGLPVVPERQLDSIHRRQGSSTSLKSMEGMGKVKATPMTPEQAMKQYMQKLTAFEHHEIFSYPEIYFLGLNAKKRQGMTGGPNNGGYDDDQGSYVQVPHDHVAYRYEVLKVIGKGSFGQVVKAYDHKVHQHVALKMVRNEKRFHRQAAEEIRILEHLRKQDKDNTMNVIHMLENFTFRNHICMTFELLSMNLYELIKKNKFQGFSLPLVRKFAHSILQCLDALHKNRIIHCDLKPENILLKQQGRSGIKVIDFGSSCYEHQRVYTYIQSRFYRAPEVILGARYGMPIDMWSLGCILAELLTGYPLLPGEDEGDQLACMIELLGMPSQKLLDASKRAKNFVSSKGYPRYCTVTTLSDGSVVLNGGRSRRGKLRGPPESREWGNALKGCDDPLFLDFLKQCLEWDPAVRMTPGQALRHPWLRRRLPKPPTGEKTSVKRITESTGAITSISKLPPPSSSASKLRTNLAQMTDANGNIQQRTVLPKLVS

Cdk4/6_KO MEFs = test: Cell growth in Cdk-deficient MEFs; type: cell-based, mouse; settings: relative cell count day 6 versus day 3; FIG. 4
Method: (§4) Cdk-deficient MEFs were plated in 10-cm dish in triplicate (100,000/well) and treated with the selected compounds at the indicated concentration, based on GI50 previously determined in the MDA-MB-231 cell line. Cells were counted in an optical microscope 3 and 6 days after treatment to estimate the relative cell growth in each condition.
(§5) To further investigate the relative functional dependence of the subject compounds on CDK2 versus CDK4 or CDK6, the specific effects of PS004, PS006 and PS009 were tested on CDK-deficient mouse embryonic fibroblasts (MEFs) obtained from Cdk2 knock out, Cdk4; Cdk6-double knock out and Cdk2; Cdk4; Cdk6-triple knock out mouse models.

Cdk2/4/6_KO MEFs = test: Cell growth in Cdk-deficient MEFs; type: cell-based, mouse; settings: relative cell count day 6 versus day 3; FIG. 4
Method: as §4, §5

[5] = Metabolic stability in hepatocytes; type: in vitro ADME; settings: human, 60-90 min test
[6] = Metabolic stability in microsomes; type: in vitro ADME; settings: human, 60-90 min test
[7] = Thermodynamic solubility (pH 7.4); type: physicochemical; settings: pH 7.4, aqueous buffer, thermodynamic from solid
[8] = tested on: SW1783 glioblastoma cell line (pRB mutant); test: Proliferation assay: determination of GI50; type: cell-based; settings: Homo sapiens, Table 4, n = 4, read-out: Growth inhibition GI50, Glioblastoma pRB Mutant SW1783
Method: as §1, §2, §3

[9] = tested on: MDA-MB-468 breast carcinoma cell line (pRB mutant); test: Proliferation assay: determination of GI50; type: cell-based; settings: Homo sapiens, Table 4, n = 2, read-out: Growth inhibition GI50, Breast cancer pRB Mutant MDA-MB-468
Method: as §1, §2, §3

[10] = Permeability Caco-2 cells; type: in vitro ADME; settings: human, Caco-2
Caco-2 cells = test: Permeability Caco-2 cells; type: in vitro ADME
[11] = not told
[12] = Kinetic solubility (pH 7.4); type: physicochemical; settings: pH 7.4, aqueous buffer, kinetic from dmso stock
[13] = Metabolic stability in hepatocytes; type: in vitro ADME; settings: mouse, 60-90 min test
[14] = Metabolic stability in microsomes; type: in vitro ADME; settings: mouse, 60-90 min test
[15] = tested on: MDA-MB-231 human breast cancer cells; test: Cell cycle analysis (DNA content, flow cytometry); type: cell-based; settings: GI50 concentration; FIG. 1
Method: FIG. 1 depicts DNA content profiles of MDA-MB-231 human breast cancer cells treated with subject compounds or commercial CDK inhibitors, showing the percentage of cells at the different cell cycle phases after 48 hours of the treatments indicated. (n=6 technical replicates).
Cells were collected by trypsinization, washed with PBS and fixed with cold 70% ethanol. Cells were treated with 250 μg/ml RNase (Qiagen) for 30 minutes at 37° C. and stained with 10 μg/ml Propidium Iodide (Sigma). Cell cycle was analyzed by flow cytometry using a LSR Fortessa Analyzer. Cell cycle profiles were generated and analyzed with FlowJo software.
Cells were collected by tripsinization at several times after treatment with the indicated compounds and, then, fixed with cold 70% Ethanol. DNA content was determined by staining with propidium iodide (10 μg/ml, Sigma Aldrich). Data acquisition was performed with a LSR Fortessa analyzer (BD Biosciences) and analysed using FlowJo software.

DYRK1A = DYRK1A (Homo sapiens, UniProt Q13627); test: Kinase profiling; type: biochemical; settings: 10 semi-logarithmic dilutions from 50 μM, singlicate
CDK5/p25NCK = CDK5/p25NCK (Homo sapiens, UniProt Q00535); test: Kinase profiling; type: biochemical; settings: 10 semi-logarithmic dilutions from 50 μM, singlicate
PCTAIRE1/CycY = PCTAIRE1/CycY (Homo sapiens, UniProt Q00536); test: Kinase profiling; type: biochemical; settings: 10 semi-logarithmic dilutions from 50 μM, singlicate
CDK7/CycH/MAT1 = CDK7/CycH/MAT1 (Homo sapiens, UniProt P50613); test: Kinase profiling; type: biochemical; settings: 10 semi-logarithmic dilutions from 50 μM, singlicate
CDK5/p35NCK = CDK5/p35NCK (Homo sapiens, UniProt Q00535); test: Kinase profiling; type: biochemical; settings: 10 semi-logarithmic dilutions from 50 μM, singlicate
PIM1 = PIM1 (Homo sapiens, UniProt P11309); test: Kinase profiling; type: biochemical; settings: 10 semi-logarithmic dilutions from 50 μM, singlicate
[16] = 10 semi-logarithmic dilutions from 50 μM, singlicate, read-out: IC50 HIPK2
[17] = 10 semi-logarithmic dilutions from 50 μM, singlicate, read-out: IC50 CDC7/DBF4
[18] = Homo sapiens, MDA-MB-231, Table 3, 48 h, n = 3 independent experiments, read-out: GI50 MDA-MB231
[19] = Homo sapiens, U-87 MG, Table 3, 48 h, n = 3 independent experiments, read-out: GI50 U87MG
[20] = 10 semi-logarithmic dilutions from 50 μM, singlicate, read-out: IC50 DYRK2

Chain of CDK3/CycC (Q00526 whole entry): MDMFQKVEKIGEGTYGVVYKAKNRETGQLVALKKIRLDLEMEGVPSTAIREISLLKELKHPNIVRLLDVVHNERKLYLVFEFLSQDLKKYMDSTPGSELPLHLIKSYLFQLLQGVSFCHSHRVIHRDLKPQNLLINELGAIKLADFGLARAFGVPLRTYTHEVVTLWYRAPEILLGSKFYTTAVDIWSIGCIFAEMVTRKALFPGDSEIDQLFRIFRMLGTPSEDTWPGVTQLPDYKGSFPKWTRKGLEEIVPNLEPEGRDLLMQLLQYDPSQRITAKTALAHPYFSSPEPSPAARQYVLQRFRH
Chain of CDK3/CycC (P24863 whole entry partner): as the sequence (P24863 whole entry partner) above

SMILES	IC50 (CDK3/CycC)	IC50 (CDK19/CycC)	IC50 (HIPK2; [16])	IC50 (CDC7/DBF4; [17])	IC50 (CDK8/CycC)	IC50 (ERK1)	IC50 (AKT1 aa1-480)	IC50 (CDK12wt/CycK)	IC50 (CDK3/CycE1)	GI50 ([1]; Homo sapiens, NCI-H460)	GI50 ([2]; Homo sapiens, MCF10)	GI50 [3, 18]	GI50 [4, 19]	IC50 (DYRK2; [20])	further results
CCN1CCN(Cc2ccc(Nc3ncc(F)c(-c4cc(F)c5nc(C)n(C(C)C)c5c4)n3)nc2)CC1 [Abemaciclib, reference compound]	49700 nM	> 50000 nM	46400 nM	> 50000 nM	> 50000 nM	> 50000 nM	> 50000 nM	21000 nM	> 50000 nM	3100 nM	1240 nM	1500 nM	470 nM	–	–
CC(=O)c1c(C)c2cnc(Nc3ccc(N4CCNCC4)cn3)nc2n(C2CCCC2)c1=O [Palbociclib, reference compound]	–	11800 nM	–	–	–	–	–	–	–	1320 nM	470 nM	740 nM	430 nM	6910 nM	cell proliferation of Cdk4; Cdk6-double knock out MEFs (Cdk4/6_KO MEFs): did not show activity; cell proliferation of Cdk2; Cdk4; Cdk6-triple knock out MEFs (Cdk2/4/6_KO MEFs): did not show activity; hepatocyte CLint ([5]; read-out: Metabolic stability, Human hepatocytes: Clearance): < 6.4 µL/min/1e6 cells; half-life ([5]; read-out: Metabolic stability, Human hepatocytes: t1/2): > 3.61 h; microsomal CLint ([6]; read-out: Metabolic stability, Human microsomes: Clearance): 23.6 µL/min/mg; half-life ([6]; read-out: Metabolic stability, Human microsomes: t1/2): 0.98 h; solubility thermodynamic [7]: 2.32 µM (≈ 1.04 µg/mL); GI50 [8]: 19900 nM; GI50 [9]: 9500 nM; Papp [10]: 0.4 ×10⁻⁶ cm/s; Permeability Caco-2 cells: Permeability, grade in words (Caco-2 cells): (low); Summary: permeability [11]: Low; solubility kinetic [12]: 19.9 µM (≈ 8.92 µg/mL); hepatocyte CLint ([13]; read-out: Metabolic stability, Mouse heptocytes: Clearance): 14.4 µL/min/1e6 cells; half-life ([13]; read-out: Metabolic stability, Mouse heptocytes: t1/2): 1.61 h; microsomal CLint ([14]; read-out: Metabolic stability, Mouse microsomes: Clearance): 18.3 µL/min/mg; half-life ([14]; read-out: Metabolic stability, Mouse microsomes: t1/2): 1.26 h; GI50 ([3]; Homo sapiens, MDA-MB-231, Table 4, n = 4, read-out: Growth inhibition GI50, Breast cancer pRB Wild-Type MDA-MB-231): 1700 nM; GI50 ([4]; Homo sapiens, U-87 MG, Table 4, n = 4, read-out: Growth inhibition GI50, Glioblastoma pRB Wild-Type U87MG): 5700 nM
O=C1NC(=NCc2cccs2)S/C1=C\c1ccc2ncccc2c1 [RO-3306, reference compound]	–	–	–	–	–	–	–	–	–	–	–	–	–	–	GI50 [1]: 25600 nM; GI50 [2]: 2800 nM; GI50 ([3]; Table 3, 48 h, n = 3 independent experiments, read-out: GI50 MDA-MB231): 3200 nM; GI50 ([4]; Table 3, 48 h, n = 3 independent experiments, read-out: GI50 U87MG): > 50000 nM
CN(C)C(=O)c1cc2cnc(Nc3ccc(N4CCNCC4)cn3)nc2n1C1CCCC1 [Ribociclib, reference compound]	323 nM	362 nM	39.7 nM	318 nM	2020 nM	> 50000 nM	> 50000 nM	495 nM	1660 nM	1470 nM	540 nM	700 nM	260 nM	13.9 nM	cell cycle arrest by DNA content [15]: robust G0/G1-phase arrest; IC50 (DYRK1A): 14.5 nM; IC50 (CDK5/p25NCK): 2190 nM; IC50 (PCTAIRE1/CycY): 589 nM; IC50 (CDK7/CycH/MAT1): 7350 nM; IC50 (CDK5/p35NCK): 641 nM; IC50 (PIM1): 24.4 nM
CC[C@H](CO)Nc1nc(NCc2ccccc2)c2ncn(C(C)C)c2n1 [Roscovitine, reference compound]	–	–	–	–	–	–	–	–	–	–	–	–	–	–	IC50 (DYRK2): 38100 nM; IC50 (HIPK2): > 50000 nM; IC50 (CDC7/DBF4): 42100 nM
